# Patent publication US20210349097A1, “BIOMARKERS FOR A COMBINATION THERAPY COMPRISING LENVATINIB AND EVEROLIMUS” (Eisai R&D Management Co., Ltd., priority 2018, published 2021)
# What was measured:
# Format in all cases: in vivo, human
# [1] = system: metastatic renal cell carcinoma (RCC); assay: Phase 2 study in metastatic RCC after prior VEGF-targeted therapy: progression free survival (PFS) by baseline serum biomarker / composite biomarker score
# Description: (§1) A Phase 2 study for lenvatinib was performed in patients with metastatic renal cell carcinoma (RCC) following a VEGF-targeted therapy. Patients having metastatic renal cell carcinoma after a prior VEGF-targeted therapy received lenvatinib mesylate (“lenvatinib”), everolimus, or the combination thereof until disease progression or development of unmanageable toxicities. A total of 153 subjects were randomized into 3 treatment arms to receive:
# (§2) 1) 18 mg/day lenvatinib (as lenvatinib free base; the same shall apply hereinafter)+5 mg/day everolimus (Arm A [LEN/EVE treatment arm], N=51),
# (§3) 2) lenvatinib 24 mg/day (Arm B [LEN treatment arm], N=52), or
# (§4) 3) everolimus 10 mg/day (Arm C [EVE treatment arm], N=50).
# (§5) Each Cycle consisted of 4 weeks (28 days)
# (§6) Blood samples for biomarker assessments were collected from subjects in all 3 treatment arms (LEN/EVE, N=49; LEN, N=51; EVE, N=47; Total, N=147) at Cycle 1 Day 1(pre-treatment). In samples from 145 subjects (94.8% of all Intention to Treat [ITT] population; LEN/EVE, N=49; LEN, N=50; EVE, N=46), 40 candidate biomarkers shown in Table 1 were assayed using 19 preconfigured CustomMAP immunoassay panels and measured by a multiplex flow cytometry-based platform by the manufacturer (Multi-Analyte Profile (MAP)) at a Myriad RBM (Austin, Tex., USA).
# (§7) For baseline levels of each serum biomarker, correlation analyses with PFS were performed using univariate Cox regression in each of the 3 arms. Hazard ratio (HR) for biomarkers with continuous values was calculated as a ratio of hazards between measured values with one standard deviation (HR per standard deviation). Baseline serum IL-18BP levels were associated with PFS in the LEN/EVE arm (Table 2). In the following tables, FDR refers to False Discovery Rate, MST refers to Median Survival Time and CI refers to Confidence Interval.
# For IL-18BP, dichotomized analysis was performed to correlate baseline serum biomarker levels in subjects with low and high levels with PFS in the 3 arms. The cutoff points were median, first tertile, second tertile, first quartile or third quartile. Association between the groups and PFS was explored using univariate Cox regression and the log-rank test with each of the selected cutoff points. At the second tertile cutoff point, median PFS for the high IL-18BP group (5.6 months) was shorter than that for the low group (17.5 months) in the LEN/EVE arm (Table 3).
# (§8) For each biomarker integrated into the CBS, a value of 1 was assigned if the respective baseline biomarker level fell within the range determined to associate with longer survival in the single biomarker cutoff analysis; a value of 0 was assigned if the respective baseline biomarker level was categorized in the range associated with shorter survival. The sum of the individual values (0 vs. 1 for each of the 5 biomarkers) was computed as a CBS for each subject (range 0-5). Patients were then dichotomized per CBS as low and high groups (0 vs. 1-5, 0-1 vs. 2-5, 0-2 vs. 3-5, 0-3 vs. 4-5, and 0-4 vs. 5). Associations between the groups and PFS were explored using univariate Cox regression and the log-rank test with each of the selected dichotomization points in each treatment arm. Interaction P values were estimated by multivariate Cox regression analysis with treatment arm, baseline level and PFS. Associations between the groups and objective response rate (ORR) were also explored using Fisher's exact test.
# (§9) For each biomarker integrated into the CBS, a value of 1 was assigned if the respective baseline biomarker level fell within the range determined to associate with longer survival in the single biomarker cutoff analysis; a value of 0 was assigned if the respective baseline biomarker level was categorized in the range associated with shorter survival. The sum of the individual values (0 vs. 1 for each of the 2 biomarkers) was computed as a CBS for each subject (range 0-2). […]
# [2] = system: metastatic renal cell carcinoma (RCC); assay: Phase 2 study in metastatic RCC after prior VEGF-targeted therapy: overall survival (OS) by baseline serum biomarker / composite biomarker score
# Description: as §1, §2, §3, §4, §5, §6
# as §7, with “OS” for “PFS”, “FGF-21, ICAM-1, and M-CSF” for “IL-18BP”, “4).” for “2). In the following tables, FDR refers to False Discovery Rate, MST refers to Median Survival Time and CI refers to Confidence Interval.”
# For FGF-21, ICAM-1, and M-CSF, dichotomized analyses were performed to correlate baseline serum biomarker levels in subjects with low and high levels with OS in the 3 arms using univariate Cox regression and the log-rank test at median cutoff point. Low baseline levels of FGF-21, ICAM-1, and M-CSF were associated with longer OS in the LEN/EVE arm (Table 5).
# as §8, with “the range previously determined to” for “the range determined to”, “longer survival on single biomarker” for “longer survival in the single biomarker”, “subject (range 0-5; high=favorable survival). Patients were” for “subject (range 0-5). Patients were”, “groups and OS were explored” for “groups and PFS were explored”, “level and OS. Associations between” for “level and PFS. Associations between”
# as §8, with “2” for “5”, “0-2).” for “0-5).”, “1-2 and” for “1-5,”, “2).” for “2-5, 0-2 vs. 3-5, 0-3 vs. 4-5, and 0-4 vs. 5).”, “OS” for “PFS”, “Interaction P values were estimated by multivariate Cox regression analysis with treatment arm, baseline level and PFS. Associations between the groups and objective response rate (ORR) were also explored using Fisher's exact test.” left out
# [3] = system: metastatic renal cell carcinoma (RCC); assay: Phase 2 study in metastatic RCC after prior VEGF-targeted therapy: objective response rate (ORR) by composite biomarker score
# Description: as §1, §2, §3, §4, §5, §6, §8
# as §8, with “the range previously determined to” for “the range determined to”, “longer survival on single biomarker” for “longer survival in the single biomarker”, “subject (range 0-5; high=favorable survival). Patients were” for “subject (range 0-5). Patients were”, “groups and OS were explored” for “groups and PFS were explored”, “level and OS. Associations between” for “level and PFS. Associations between”
# as §9
# [4] = 5-marker CBS (HGF, MIG, IL-18BP, IL-18, ANG-2)
# [5] = 5-marker CBS (TIMP-1, M-CSF, IL-18BP, ANG-2, VEGF-A)
structure (smiles),measurement,setting,value
"CO[C@H]1C[C@@H]2CC[C@@H](C)[C@@](O)(O2)C(=O)C(=O)N2CCCC[C@H]2C(=O)O[C@H]([C@H](C)C[C@@H]2CC[C@@H](OCCO)[C@H](OC)C2)CC(=O)[C@H](C)/C=C(\C)[C@@H](O)[C@@H](OC)C(=O)[C@H](C)C[C@H](C)/C=C/C=C/C=C/1C [EVE, (1R,9S,12S,15R,16E,18R,19R,21R,23S,24E,26E,28E,30S,32S,35R)-1,18-dihydroxy-12-{(1R)-2-[(1S,3R,4R)-4-(2-hydroxyethoxy)-3-methoxycyclohexyl]-1-methylethyl}-19,30-dimethoxy-15,17,21,23,29,35-hexamethyl-11,36-dioxa-4-aza-tricyclo[30.3.1.0^4,9]hexatriaconta-16,24,26,28-tetraene-2,3,10,14,20-pentaone]","mPFS, CBS High (1-2)","[1]; 2-marker CBS (IL-18BP, ANG-2)",5.5 mo
same,"mPFS, CBS Low (0)","[1]; 2-marker CBS (IL-18BP, ANG-2)",3.0 mo
same,"mPFS, high CBS score (1-2)","[1]; 2-marker CBS (IL-18BP, ANG-2)",5.5 months
same,"mPFS, CBS High (3-5)",[1]; [4],3.6 mo
same,"mPFS, CBS Low (0-2)",[1]; [4],5.5 mo
same,"mPFS, high CBS score (3-5)",[1]; [4],3.6 months
same,"MST (median PFS), IL-18BP High Group","[1]; baseline serum IL-18BP high, cutoff quantile 0.67 (second tertile)",3.5 months
same,"MST (median PFS), IL-18BP Low Group","[1]; baseline serum IL-18BP low, cutoff quantile 0.67 (second tertile)",5.5 months
same,"HR (95% CI) PFS, IL-18BP low and high groups","[1]; cutoff quantile 0.67 (second tertile), univariate Cox regression",1.194
same,"HR (95% CI), baseline IL-18BP with PFS","[1]; univariate Cox regression, HR per standard deviation of baseline serum IL-18BP",1.207
same,"HR OS, high CBS (1-2) vs low CBS (0) within arm","[2]; 2-marker CBS (IL-18BP, ANG-2)",0.461
same,"mOS, CBS High (1-2)","[2]; 2-marker CBS (IL-18BP, ANG-2)",17.5 mo
same,"mOS, CBS Low (0)","[2]; 2-marker CBS (IL-18BP, ANG-2)",11.4 mo
same,"mOS, high CBS score (1-2)","[2]; 2-marker CBS (IL-18BP, ANG-2)",17.5 months
same,"mOS, low CBS score (0)","[2]; 2-marker CBS (IL-18BP, ANG-2)",11.4 months
same,"mOS, CBS High (3-5)",[2]; [5],17.4 mo
same,"mOS, CBS Low (0-2)",[2]; [5],15.0 mo
same,"mOS, high CBS score (3-5)",[2]; [5],17.4 months
same,"MST (median OS), FGF-21 High","[2]; baseline FGF-21 high, cutoff quantile 0.5 (median)",19.5
same,"MST (median OS), FGF-21 Low","[2]; baseline FGF-21 low, cutoff quantile 0.5 (median)",15.3
same,"MST (median OS), ICAM-1 High","[2]; baseline ICAM-1 high, cutoff quantile 0.5 (median)",18.5
same,"MST (median OS), ICAM-1 Low","[2]; baseline ICAM-1 low, cutoff quantile 0.5 (median)",13.3
same,"MST (median OS), M-CSF High","[2]; baseline M-CSF high, cutoff quantile 0.5 (median)",15.4
same,"MST (median OS), M-CSF Low","[2]; baseline M-CSF low, cutoff quantile 0.5 (median)",17.2
same,"HR (95% CI) OS, FGF-21 low and high groups",[2]; cutoff quantile 0.5 (median),0.741
same,"HR (95% CI) OS, ICAM-1 low and high groups",[2]; cutoff quantile 0.5 (median),0.66
same,"HR (95% CI) OS, M-CSF low and high groups",[2]; cutoff quantile 0.5 (median),1.146
same,"HR (95% CI), baseline FGF-21 with OS","[2]; univariate Cox regression, HR per standard deviation of baseline serum FGF-21",0.996
same,"HR (95% CI), baseline ICAM-1 with OS","[2]; univariate Cox regression, HR per standard deviation of baseline serum ICAM-1",1.017
same,"HR (95% CI), baseline M-CSF with OS","[2]; univariate Cox regression, HR per standard deviation of baseline serum M-CSF",1.366
same,"ORR, CBS High (1-2)","[3]; 2-marker CBS (IL-18BP, ANG-2)",6.9%
same,"ORR, CBS Low (0)","[3]; 2-marker CBS (IL-18BP, ANG-2)",0.0%
same,"ORR, CBS High (3-5)",[3]; [4],5.0%
same,"ORR, CBS Low (0-2)",[3]; [4],4.2%
same,"ORR, CBS High (3-5)",[3]; [5],5.3%
same,"ORR, CBS Low (0-2)",[3]; [5],4.0%
